Assays:
Test in all cases: relative viability (nuclei count vs DMSO), 5 days (fraction); higher = more cells survive
[1] = system: HCC-78
How it was run: (§1)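 Relative viability equals treated-well nuclei counts divided by vehicle-well nuclei counts. Counts came from 4× images of lung cancer cell lines grown in 1536-well plates for 5 days after pin-tool dosing on the day after seeding. Dosing used one drug alone or a fixed anchor-drug dose plus five library-drug doses (not always all listed) in √10 steps, and values are medians of duplicate plates.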

[2] = system: NCI-H1666
How it was run: as §1

[3] = system: NCI-H1915
How it was run: as §1

[4] = system: NCI-H2085
How it was run: as §1

[5] = system: HOP-62
How it was run: as §1

[6] = system: ABC-1
How it was run: as §1

[7] = system: UMC-11
How it was run: as §1

[8] = system: COR-L 105
How it was run: as §1

[9] = system: EPLC-272H
How it was run: as §1

[10] = system: NCI-H322M
How it was run: as §1

[11] = system: NCI-H358
How it was run: as §1

`CC(=O)O[C@@]12CO[C@@H]1C[C@H](O)[C@@]1(C)C(=O)[C@H](O)C3=C(C)[C@@H](OC(=O)[C@H](O)[C@@H](NC(=O)OC(C)(C)C)c4ccccc4)C[C@@](O)([C@@H](OC(=O)c4ccccc4)[C@H]21)C3(C)C` [Docetaxel] + C[C@]1(O)C[C@@H](c2nc(-c3ccc4ccc(-c5ccccc5)nc4c3)c3c(N)nccn32)C1 [Linsitinib] (partner 1 µM) gave a relative viability ([1]; first compound 0.0002 µM) of 0.469, a relative viability ([1]; first compound 0.000632 µM) of 0.429 and a relative viability ([1]; first compound 0.002 µM) of 0.339. For the same compound, the relative viability ([1]; first compound 0.006325 µM) was 0.284, the relative viability ([1]; first compound 0.02 µM) was 0.222 and the relative viability ([2]; first compound 0.0002 µM) was 0.712. For the same compound, the relative viability ([2]; first compound 0.000632 µM) was 0.404, the relative viability ([2]; first compound 0.002 µM) was 0.383 and the relative viability ([2]; first compound 0.006325 µM) was 0.28. For the same compound, the relative viability ([2]; first compound 0.02 µM) was 0.211, the relative viability ([3]; first compound 0.0002 µM) was 1.07 and the relative viability ([3]; first compound 0.000632 µM) was 1.06. It also gave a relative viability ([3]; first compound 0.002 µM) of 0.724, a relative viability ([3]; first compound 0.006325 µM) of 0.239 and a relative viability ([3]; first compound 0.02 µM) of 0.156. For the same compound, the relative viability ([4]; first compound 0.0002 µM) was 0.868, the relative viability ([4]; first compound 0.000632 µM) was 0.888 and the relative viability ([4]; first compound 0.002 µM) was 0.652. The relative viability ([4]; first compound 0.006325 µM) was 0.576, the relative viability ([4]; first compound 0.02 µM) was 0.276 and the relative viability ([5]; first compound 0.0002 µM) was 1.18. The relative viability ([5]; first compound 0.000632 µM) was 0.672, the relative viability ([5]; first compound 0.02 µM) was 0.128 and the relative viability ([6]; first compound 0.0002 µM) was 0.834. For the same compound, the relative viability ([6]; first compound 0.000632 µM) was 1, the relative viability ([6]; first compound 0.002 µM) was 0.424 and the relative viability ([6]; first compound 0.006325 µM) was 0.286. For the same compound, the relative viability ([6]; first compound 0.02 µM) was 0.218, the relative viability ([7]; first compound 0.0002 µM) was 0.982 and the relative viability ([7]; first compound 0.000632 µM) was 0.905. For the same compound, the relative viability ([7]; first compound 0.002 µM) was 0.278, the relative viability ([7]; first compound 0.006325 µM) was 0.237 and the relative viability ([7]; first compound 0.02 µM) was 0.183. For the same compound, the relative viability ([8]; first compound 0.0002 µM) was 0.899, the relative viability ([8]; first compound 0.000632 µM) was 0.757 and the relative viability ([8]; first compound 0.002 µM) was 0.395. It also gave a relative viability ([8]; first compound 0.006325 µM) of 0.362, a relative viability ([8]; first compound 0.02 µM) of 0.288 and a relative viability ([9]; first compound 0.0002 µM) of 1.08. The relative viability ([9]; first compound 0.000632 µM) was 0.954, the relative viability ([9]; first compound 0.002 µM) was 0.54 and the relative viability ([9]; first compound 0.006325 µM) was 0.126. The relative viability ([9]; first compound 0.02 µM) was 0.0815, the relative viability ([10]; first compound 0.0002 µM) was 0.852 and the relative viability ([10]; first compound 0.000632 µM) was 0.989. For the same compound, the relative viability ([10]; first compound 0.002 µM) was 0.878, the relative viability ([10]; first compound 0.006325 µM) was 0.547 and the relative viability ([10]; first compound 0.02 µM) was 0.374. For the same compound, the relative viability ([11]; first compound 0.0002 µM) was 0.63, the relative viability ([11]; first compound 0.000632 µM) was 0.371 and the relative viability ([11]; first compound 0.002 µM) was 0.206.
